# Tested on: Sprague-Dawley rats
# Test: Topical administration of AGN 193109 to rats with Recovery group (Example 4)
# Assay type: in vivo, rat
# Experimental: This experiment is conducted as indicated in Example 2, except that the drug is 193109 rather than AGN 194310, and a Recovery group is monitored for a period of time post-treatment as in Example 3. Dosages of the '109 drug is the same as for the topical treatment with the '310 drug.
# [1] = rats, topical, at the effective dose
compound,measurement,setting,value
Cc1ccc(C2=CCC(C)(C)c3ccc(C#Cc4ccc(C(=O)O)cc4)cc32)cc1 [AGN 193109],reversibility (testes histology),male rats 12 weeks after administration,repopulation of the tubules with males gametes in various stages of development
same,histological analysis of the testes,[1],"absence of primary spermatocytes, spermatids and spermatozoa in the majority of animals' seminiferous tubules"
same,spermatogenic arrest (examination of the testes),[1],spermatogenic arrest can be seen within thirty days after initiation of treatment
